Some test systems named below: SNB-19; UACC-62; EKVX; U-251; PC-3; SK-MEL-28; COLO 205; OVCAR-3; SW-620; RXF 393; HOP-92; SF-268; ACHN; DMS-114; SK-MEL-2; HCT-116; HCT-15; K562; UACC-257; MDA-MB-435.
Holding throughout (test): NCI anticancer screen, dose series, 48 h

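Each compound was tested at five concentrations against cells in 96-well plates for 48 hours. GI50: concentration for 50% inhibition of growth.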 Active and inactive are the calls of the source. Cut-off read from the data, not from the text of the source: active = GI50 up to about 1.1 µM and inactive = higher.

With `CCCCCCCCCCCCCCCCCCNC(=O)OCC(CNS(=O)(=O)CCC[n+]1cccc2ccccc21)COC` (stereo not drawn), the GI50 with SNB-19 was 1.4 µM (inactive); with UACC-62 it was 1.96 µM (inactive); in the assay with EKVX it was 17.7 µM (inactive); in the assay with U-251 it was 0.596 µM (active); in the assay with PC-3, 1.76 µM (inactive); in the assay with SK-MEL-28 it was 4.74 µM (inactive). The GI50 with COLO 205 was 0.435 µM (active); in the assay on OVCAR-3, 3.99 µM (inactive); in the assay with SW-620, 2.16 µM (inactive); in the assay on RXF 393, 4.99 µM (inactive); in the assay on HOP-92 it was 0.838 µM (active); in the assay on SF-268 it was 2.34 µM (inactive). Also, the GI50 was 6.75 µM (inactive) in the assay with ACHN; 1.18 µM (inactive) with DMS-114; 1.9 µM (inactive) with SK-MEL-2; 1.35 µM (inactive) in the assay on HCT-116; 23.7 µM in the assay on HCT-15; 3.55 µM (inactive) in the assay with K562. Further, the GI50 in the assay on UACC-257 was 2.8 µM (inactive); with MDA-MB-435 it was 2.1 µM (inactive).

Take `CC(C)(C)C(=O)Nc1ccccc1Br`: the GI50 in the assay with SNB-19, in the assay on UACC-62, in the assay on EKVX, in the assay on U-251, in the assay on SK-MEL-28 and in the assay with COLO 205 was > 100 µM (inactive) in each case. Also, the GI50 in the assay on OVCAR-3, with SW-620, with RXF 393, in the assay with HOP-92, in the assay with ACHN and in the assay on DMS-114 was > 100 µM (inactive) each time. Further, the GI50 in the assay with SK-MEL-2 is > 100 µM (inactive); with HCT-116 it was > 100 µM (inactive); in the assay with HCT-15 it was > 100 µM; in the assay with K562, > 100 µM (inactive); in the assay on UACC-257, > 100 µM (inactive).

Consider `COc1c2c(cc3c1C(=O)Cc1ccc4c(c1CN(C)CC3)OCO4)OCO2`, for which the GI50 is > 100 µM (inactive) in the assay on SNB-19; > 100 µM (inactive) in the assay with UACC-62; > 100 µM (inactive) in the assay on EKVX; 86.9 µM (inactive) in the assay on U-251; > 100 µM (inactive) with SK-MEL-28; 43.1 µM (inactive) in the assay with COLO 205. The GI50 with OVCAR-3 is > 100 µM (inactive); in the assay with SW-620 it was > 100 µM (inactive); with RXF 393, > 100 µM (inactive); with HOP-92 it was 5.71 µM (inactive); with SF-268 it was > 100 µM (inactive); in the assay with ACHN it was > 100 µM (inactive). The GI50 in the assay with DMS-114 is 39.4 µM (inactive); with SK-MEL-2, > 100 µM (inactive); in the assay with HCT-116, 52.2 µM (inactive); in the assay on HCT-15 it was > 100 µM; with K562, 28.8 µM (inactive); in the assay on UACC-257 it was > 100 µM (inactive).

Consider `Cc1nc2c(N)ncnc2o1`, for which the GI50 with SNB-19, in the assay on UACC-62, with EKVX, with U-251, with SK-MEL-28 and in the assay on COLO 205 was > 100 µM (inactive) throughout. Also, the GI50 with OVCAR-3, in the assay on SW-620, in the assay with RXF 393, in the assay on HOP-92, in the assay on SF-268 and with ACHN was > 100 µM (inactive) throughout. Further, the GI50 in the assay on DMS-114 is > 100 µM (inactive); with SK-MEL-2 it was > 100 µM (inactive); with HCT-116 it was > 100 µM (inactive); in the assay with HCT-15 it was > 100 µM; in the assay with K562, > 100 µM (inactive); with UACC-257, > 100 µM (inactive).

As for `COc1cc(O)c2c(c1)C(=O)C=C(Cl)C2=O`, the GI50 in the assay with SNB-19, with UACC-62, in the assay on EKVX, in the assay with U-251, in the assay with SK-MEL-28 and in the assay with COLO 205 was > 100 µM (inactive) each time. Also, the GI50 is > 100 µM (inactive) in the assay on OVCAR-3; > 100 µM (inactive) in the assay with SW-620; > 100 µM (inactive) in the assay on RXF 393; > 100 µM (inactive) in the assay on HOP-92; > 100 µM (inactive) with SF-268; 94.6 µM (inactive) in the assay on ACHN. Moreover, the GI50 is > 100 µM (inactive) with DMS-114; > 100 µM (inactive) in the assay on SK-MEL-2; 66.4 µM (inactive) in the assay with HCT-116; > 100 µM with HCT-15; > 100 µM (inactive) with K562; > 100 µM (inactive) in the assay on UACC-257.

In the case of `CC(=O)/C=C/c1ccc(C2CC(C)=Nc3c(ccc4c3C(=O)c3ccccc3C4=O)N2)cc1` (stereo not drawn), the GI50 was > 100 µM (inactive) in the assay with SNB-19; 59.7 µM (inactive) in the assay with UACC-62; 27.3 µM (inactive) in the assay on EKVX; 59.7 µM (inactive) with U-251; > 100 µM (inactive) in the assay with SK-MEL-28; 60.7 µM (inactive) in the assay with COLO 205. Further, the GI50 with OVCAR-3 was > 93.8 µM (inactive); in the assay on SW-620, 38.5 µM (inactive); in the assay with RXF 393, 92 µM (inactive); in the assay on HOP-92, 28.2 µM (inactive); in the assay with SF-268 it was > 71 µM (inactive); in the assay with ACHN, 19 µM (inactive). In addition, the GI50 was 34.9 µM (inactive) with DMS-114; > 29.6 µM (inactive) in the assay on SK-MEL-2; 33 µM (inactive) in the assay with HCT-116; 27.2 µM in the assay with HCT-15; > 57.5 µM (inactive) in the assay on K562.

As for `CCOC(=O)CCn1cnc(N)n1`, the GI50 in the assay on SNB-19, with UACC-62, in the assay on EKVX, in the assay on U-251, with SK-MEL-28 and with COLO 205 was > 100 µM (inactive) throughout. In addition, the GI50 with OVCAR-3, in the assay with SW-620, in the assay with RXF 393, in the assay with HOP-92, with ACHN and in the assay on DMS-114 was > 100 µM (inactive) each time. The GI50 in the assay on SK-MEL-2 is > 100 µM (inactive); in the assay on HCT-116, > 100 µM (inactive); in the assay with HCT-15, > 100 µM; in the assay with K562, > 100 µM (inactive); in the assay with UACC-257, > 100 µM (inactive).

Turning to `CC(C)C1COC(c2ccc3ccccc3c2-c2c(O[Si](C)(C)C(C)(C)C)ccc3ccccc23)=N1` (stereo not drawn), the GI50 is 14.9 µM (inactive) in the assay with SNB-19; 15.8 µM (inactive) with UACC-62; 19.1 µM (inactive) in the assay with EKVX; 19.1 µM (inactive) in the assay on SK-MEL-28; 18.4 µM (inactive) with COLO 205; 17.3 µM (inactive) with OVCAR-3. The GI50 in the assay with SW-620 was 18.5 µM (inactive); in the assay with RXF 393, 18.8 µM (inactive); in the assay with HOP-92, 13.6 µM (inactive); in the assay with SF-268, 17.9 µM (inactive); in the assay on ACHN it was 18.9 µM (inactive); in the assay with DMS-114, 15.6 µM (inactive). The GI50 was 16.1 µM (inactive) in the assay with SK-MEL-2, 22.3 µM in the assay with HCT-15, 16.6 µM (inactive) with K562 and 18.2 µM (inactive) in the assay on UACC-257.

Consider `CN/N=C(\C)CC(=O)Nc1cccc(Cl)c1C`, for which the GI50 with SNB-19, in the assay on UACC-62, with EKVX, in the assay on U-251, with SK-MEL-28 and with COLO 205 was > 100 µM (inactive) in each case. In addition, the GI50 with OVCAR-3, with RXF 393, in the assay with HOP-92, with SF-268, in the assay with ACHN and in the assay with DMS-114 was > 100 µM (inactive) each time. In addition, the GI50 in the assay with SK-MEL-2 is > 100 µM (inactive); in the assay with HCT-116, > 100 µM (inactive); in the assay with HCT-15, > 100 µM; with K562 it was > 100 µM (inactive); with UACC-257 it was > 100 µM (inactive).

In the case of `Cc1ccccc1NC(=O)C(=O)c1c(O)c2ccc(O)cc2oc1=O`, the GI50 in the assay on SNB-19, in the assay with UACC-62, in the assay with U-251, with SK-MEL-28, in the assay on COLO 205 and in the assay on OVCAR-3 was > 100 µM (inactive) each time. Moreover, the GI50 in the assay on SW-620, in the assay on RXF 393, in the assay on HOP-92, with SF-268, with ACHN and in the assay on DMS-114 was > 100 µM (inactive) throughout. The GI50 in the assay on SK-MEL-2 was > 100 µM (inactive); with HCT-116, > 100 µM (inactive); in the assay on HCT-15, > 100 µM; in the assay with K562, > 100 µM (inactive); with UACC-257, > 100 µM (inactive).

Consider `CCC(C)CCOC(=O)c1ccc(/N=C\c2ccc(/C=N/c3ccc(C(=O)OCCC(C)CC)cc3)cc2)cc1` (stereo not drawn), for which the GI50 with SNB-19 is > 100 µM (inactive); in the assay with UACC-62 it was > 100 µM (inactive); in the assay on EKVX, 62.2 µM (inactive); with U-251, > 100 µM (inactive); in the assay on SK-MEL-28, > 100 µM (inactive); in the assay with COLO 205 it was > 100 µM (inactive). For the same compound, the GI50 in the assay with OVCAR-3, in the assay with SW-620, with RXF 393, with HOP-92, in the assay with SF-268 and in the assay with ACHN was > 100 µM (inactive) each time. Moreover, the GI50 was > 100 µM (inactive) in the assay with DMS-114; > 100 µM (inactive) in the assay on SK-MEL-2; > 100 µM (inactive) with HCT-116; > 100 µM in the assay with HCT-15; > 100 µM (inactive) with K562; > 100 µM (inactive) with UACC-257.

The values are drawn from ChEMBL document CHEMBL1201862, “PubChem BioAssay data set” (2004).
